Results taken from ChEMBL document CHEMBL3352631, “The identification of 7-[(R)-2-((1S,2S)-2-benzyloxycyclopentylamino)-1-hydroxyethyl]-4-hydroxybenzothiazolone as an inhaled long-acting β2-adrenoceptor agonist” (Bioorg Med Chem Lett, 2014).

Key:
Rattus norvegicus [1] = test: Volume of distribution at steady state in rat at 2.1 umol/kg, iv; assay type: ADME, organism-based; details: in vivo
[2] = Lipophilicity, logD of the compound at pH 7.4 by chromatographic method; assay type: physicochemical; details: buffer
Rattus norvegicus [3] = test: Volume of distribution at steady state in rat at 5 umol/kg, iv; assay type: ADME, organism-based; details: in vivo

Row | Vdss (Rattus norvegicus [1]) [mL/min/kg] | chromatographic logD [2] | Vdss (Rattus norvegicus [3]) [mL/min/kg] | SMILES
1 | 6.2 | 1.25 |  | O=c1[nH]c2c(O)ccc([C@@H](O)CN[C@H]3CCC[C@@H]3OCc3ccccc3)c2s1
2 |  | 1.77 | 4.1 | CCc1cc2c(cc1CC)CC(NC[C@H](O)c1ccc(O)c3[nH]c(=O)ccc13)C2 [INDACATEROL]
